Assays:
[1] = biological target: T1, follicle-stimulating hormone (FSH) receptor (Rattus norvegicus, UniProt P20395); experiment: Rat granulosa EC50 FSH (Assay B); type: cell-based; details: rat granulosa cells, Table 2
T1 construct: endogenous in cells; host or cells: rat granulosa cells
T1 sequence (P20395 18-692): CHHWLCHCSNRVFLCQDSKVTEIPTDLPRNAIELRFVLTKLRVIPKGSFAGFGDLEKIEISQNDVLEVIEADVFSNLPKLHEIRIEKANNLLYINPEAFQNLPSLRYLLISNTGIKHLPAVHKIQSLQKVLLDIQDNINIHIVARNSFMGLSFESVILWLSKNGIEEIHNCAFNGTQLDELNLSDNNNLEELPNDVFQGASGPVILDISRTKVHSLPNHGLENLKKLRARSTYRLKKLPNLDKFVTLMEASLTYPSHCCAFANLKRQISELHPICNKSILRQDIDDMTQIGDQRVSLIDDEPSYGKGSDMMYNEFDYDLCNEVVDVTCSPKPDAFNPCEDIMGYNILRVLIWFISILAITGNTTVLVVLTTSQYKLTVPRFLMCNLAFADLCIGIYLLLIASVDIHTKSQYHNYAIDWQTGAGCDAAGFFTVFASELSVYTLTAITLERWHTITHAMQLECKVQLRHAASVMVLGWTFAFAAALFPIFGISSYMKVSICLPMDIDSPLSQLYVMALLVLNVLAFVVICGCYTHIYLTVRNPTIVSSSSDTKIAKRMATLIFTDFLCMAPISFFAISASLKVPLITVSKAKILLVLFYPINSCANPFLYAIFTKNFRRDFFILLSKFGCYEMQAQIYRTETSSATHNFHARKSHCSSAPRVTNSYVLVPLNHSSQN
Protocol: Example 11: Rat Granulosa EC50 FSH (Assay B)
The assay was performed pursuant to the teaching of Yanofsky et al. (2006) Allosteric activation of the follicle-stimulating hormone (FSH) receptor by selective, nonpeptide agonists. JBC 281(19): 13226-13233, which is incorporated by reference in the disclosure of the invention.

FSHR = biological target: T2, FSHR (Homo sapiens, UniProt P23945); experiment: EC50 of cyclic AMP production in CHO FSHR cells + EC20 FSH (Assay A); type: cell-based; details: CHO FSHR cells + EC20 FSH; Table 2; read-out: Assay A EC50 of cyclic AMP production
T2 construct: expressed in transfected cells; host or cells: CHO (Cho-FSHR-LUC-1-1-43)
Outline: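 cAMP HTRF ratio (665/620 nm) read after 1 h, 37 °C exposure of CHO-FSHR cells to compound in presence of EC20 FSH ([…]) and IBMX 200 μM. Responses given relative to FSH standard maximum; EC50 derived.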

T2 sequence (P23945 18-695): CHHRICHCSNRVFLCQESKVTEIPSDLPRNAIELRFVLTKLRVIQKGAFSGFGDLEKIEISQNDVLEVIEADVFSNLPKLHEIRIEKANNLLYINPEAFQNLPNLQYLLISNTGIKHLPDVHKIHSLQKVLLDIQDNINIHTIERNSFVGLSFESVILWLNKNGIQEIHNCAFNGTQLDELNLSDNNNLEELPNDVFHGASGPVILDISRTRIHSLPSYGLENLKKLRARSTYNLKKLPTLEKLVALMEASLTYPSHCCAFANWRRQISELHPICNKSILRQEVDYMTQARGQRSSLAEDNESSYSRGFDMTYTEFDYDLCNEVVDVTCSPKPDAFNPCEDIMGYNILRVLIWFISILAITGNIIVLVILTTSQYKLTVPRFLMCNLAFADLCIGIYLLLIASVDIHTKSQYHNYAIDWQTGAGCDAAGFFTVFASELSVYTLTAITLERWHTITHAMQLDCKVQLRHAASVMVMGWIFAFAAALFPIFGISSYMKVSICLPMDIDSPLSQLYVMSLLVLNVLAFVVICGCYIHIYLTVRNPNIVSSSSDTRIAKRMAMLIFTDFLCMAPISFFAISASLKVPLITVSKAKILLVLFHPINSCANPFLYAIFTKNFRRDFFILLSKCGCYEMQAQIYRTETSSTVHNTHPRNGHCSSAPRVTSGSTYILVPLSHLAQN
T2 sequence (P01215 25-116 partner): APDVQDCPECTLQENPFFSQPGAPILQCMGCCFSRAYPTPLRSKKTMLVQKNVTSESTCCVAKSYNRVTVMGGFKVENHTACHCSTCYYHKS
T2 sequence (P01225 19-129 partner): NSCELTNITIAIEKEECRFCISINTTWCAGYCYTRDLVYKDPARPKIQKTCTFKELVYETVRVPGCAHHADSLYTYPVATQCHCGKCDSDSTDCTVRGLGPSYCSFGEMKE

Row | Structure (SMILES) | EC50 [1] | EC50 (FSHR) | Assay B % at 1.25 μM ([1]; 1.25 μM)
1 | Cc1ccc(C(=O)Nc2cc(C(=O)NCCCN3CCOC3=O)ccc2N2CCN(c3ccccc3C)CC2)o1 [Compound 322] | 1000 to 10000 nM | 100 to 1000 nM | –
2 | Cc1ccccc1N1CCN(c2ccc(C(=O)NCCS(=O)(=O)N3CCCC3)cc2NC(=O)c2coc(C3CC3)n2)CC1 [Compound 344] | 100 to 1000 nM | 1000 to 10000 nM | –
3 | Cc1ncc(C(=O)Nc2cc(C(=O)NCCCN3CCCC3=O)ccc2N2CCN(c3ccccc3C)CC2)o1 [Compound 349] | 1000 to 10000 nM | 100 to 1000 nM | –
4 | Cc1ccccc1N1CCN(c2ccc(C(=O)NCCCN3C(=O)[C@H]4C[C@@H]3C(O)C4O)cc2NC(=O)c2coc(C3CC3)n2)CC1 (some centres unmarked) [Compound 365] | < 100 nM | 100 to 1000 nM | –
5 | Cc1ccccc1N1CCN(c2ccc(C(=O)NCCCc3nn[nH]n3)cc2NC(=O)c2coc(C3CC3)n2)CC1 [Compound 392] | 100 to 1000 nM | < 100 nM | –
6 | Cc1nc(C)n(CCCNC(=O)c2ccc(N3CCN(c4ccccc4C)CC3)c(NC(=O)c3coc(C4CC4)n3)c2)n1 [Compound 394] | – | 100 to 1000 nM | 50%
7 | Cc1ccc(CNc2cc(C(=O)NCCCN3CCCC3=O)ccc2N2CCN(c3ccccc3C)CC2)o1 [Compound 410] | 1000 to 10000 nM | 100 to 1000 nM | –
8 | Cc1ccccc1N1CCN(c2ccc(C(=O)NCCCN3CCCC3=O)cc2NC(=O)c2ccn(C)n2)CC1 [Compound 435] | 100 to 1000 nM | 100 to 1000 nM | –
9 | O=C(NCCCN1CCCC1=O)c1ccc(N2CCN(c3ncccc3Cl)CC2)c(NC(=O)c2coc(C3CC3)n2)c1 [Compound 510] | 1000 to 10000 nM | < 100 nM | –
10 | Cc1ccc(C(=O)Nc2cc(C(=O)NCCCN3CCCC3=O)ccc2N2CCN(c3ccccc3C3CC3)CC2)o1 [Compound 523] | 100 to 1000 nM | 100 to 1000 nM | –
11 | Cc1ccccc1N1CCN(c2ccc(C(=O)NCCCN3CCCC3=O)cc2NCc2ccccn2)CC1 [Compound 526] | > 10000 nM | 100 to 1000 nM | –
12 | Cc1ccnc(N2CCN(c3ccc(C(=O)NCCCN4CCCC4=O)cc3NC(=O)c3coc(C4CC4)n3)CC2)c1 [Compound 529] | 1000 to 10000 nM | 100 to 1000 nM | –
13 | COc1ccnc(N2CCN(c3ccc(C(=O)NCCCN4CCCC4=O)cc3NC(=O)c3coc(C4CC4)n3)CC2)n1 [Compound 601] | 1000 to 10000 nM | 100 to 1000 nM | –

From US9938262B2, “Benzamides” (Merck Patent GmbH, priority 2011, dated 2018)
